Key:
C57BL/6 mouse = assay: Elevated plus maze (EPM) test; assay type: in vivo; details: for OE (%) / OT (%): immobilization stress
Source text: In order to induce a mental disorder such as anxiety, depression, stress or the like, a mouse was fixed to a 3×10 cm cylindrical-shaped immobilization stress apparatus, such that the mouse may not move therein at all.
Particularly, in order to prepare a mouse with anxiety induced by immobilization stress, the said mouse, which had been fixed to the apparatus, was repeatedly subjected to immobilization stress five times, in such a way that the mouse was held with its head up for two hours once every other day, and then a behavioral experiment was performed in two hours after a final immobilization stress.
(§1) Also, in order to prepare a mouse with depression induced by immobilization stress, the said mouse, which had been fixed to the apparatus, was repeatedly subjected to continuous immobilization stress once daily for two days, in such a way that the mouse was held with its head up for 12 hours. A lactic acid bacterium was administered once daily for five days, and a behavioral experiment was performed in one hour after a final administration.
In order to induce a mental disorder such as anxiety, depression, stress or the like, a mouse was administered ampicillin (100 mg/kg) for two days in a row. An anxiety behavior was measured in 10 days after administration.
For a mouse model with immobilization stress induced, a lactic acid bacterium or physiological saline solution was administered thereto depending on an experimental group once daily for three days from Day 7 after starting the immobilization stress. For a mouse model with antibiotic stress induced, a lactic acid bacterium or physiological saline solution was administered thereto depending on an experimental group once daily for three days from Day 7 after starting the antibiotic stress.
(§2) An anxiety behavior was measured in five hours after administering the lactic acid bacterium or physiological saline solution, and blood indicators (corticosterone, IL-6, TNF-α, etc.) were measured by collecting blood in one hour after finishing an elevated plus maze test.
An elevated plus maze is an experimental apparatus to measure a degree of a mental disorder such as stress, anxiety or the like. An elevated plus maze experimental apparatus used in the present experiment is a black plexiglass apparatus, in which two open arms (30×7 cm) and two enclosed arms (30×7 cm) with 20 cm-high walls stand 50 cm high above a floor, each extending 7 cm away from a center platform. In the present test, a mouse was placed in the elevated plus maze in a room, where a video camera of 20 Lux was installed high up there, and then a movement of the mouse was recorded.
Particularly, a C57BL/6 mouse (male, 19-22 g) was placed in the middle of the elevated plus maze, in such a way that a head of the mouse faced toward an open arm. Time spent in open and closed arms as well as the number of arm entries were measured for five minutes. An arm entry was defined as a case in which the mouse entered an arm with all four feet.
Out of a whole test time, the time spent in open arms (OT) was calculated via [Time spent in open arms (OT)/(Time spent in open arms (OT)+Time spent in closed arms)]×100. […] After the end of each behavioral experiment, remaining smell was eliminated by means of 70% ethanol.
According to a known interpretation of test results, it was interpreted that a mental disorder symptom such as anxiety, depression or the like occurs, if OT and OE decrease.

mouse [1] = assay: Light/dark transition test; assay type: in vivo; details: immobilization stress model
Experimental: An apparatus used for a light/dark transition test consisted of a bright area (21×42×25 cm, 390 Lux white diode) and a dark area (21×42×25 cm, 2 Lux), which were of a size and partitioned off with a door (7.5×7.5 cm). A mouse was placed in a bright area and observed for five minutes, during which time in bright area and the number of transitions into the bright area were measured. After the end of each behavioral experiment, remaining smell was eliminated by means of 70% ethanol.
According to a known interpretation of test results, it was interpreted that a mental disorder symptom such as anxiety, depression or the like occurs, if the time in bright area and the number of transitions into the bright area decrease.

mouse [2] = assay: Forced swimming test (FST); assay type: in vivo; details: depressed mouse model
Experimental: as §1
According to a method of Porsolt et al. (Porsolt R D, Le Pichon, Jalfre M (1977) Depression: A new animal model sensitive to antidepressant treatments, Nature, Vol. 266; pp. 730-732), water at 25±1° C. was filled into a water tank 40 cm in height and 20 cm in diameter, until a water level reached 25 cm high. A laboratory mouse was put into each tank and stayed there for total six minutes, out of which first two minutes were not measured as an adaptive time, and then for the last four minutes, an immobility time of the laboratory animal was measured. The immobility means a state that the mouse is floating in the water motionlessly except the least movement to keep its head only above the water.

mouse [3] = assay: Tail suspension test (TST); assay type: in vivo; details: depressed mouse model
Experimental: as §1
According to a method of Steru et al. (Steru L, Chermat R, Thierry B, Simon P (1985) The tail suspension test: A new method for screening antidepressants in mice, Psychopharmacology, Vol. 85; pp. 367-370), a mouse was hanged up in a container 35 cm in diameter and 50 cm in height by placing a fixing device approximately 1 cm from the tip of a tail thereof of a mouse, such that the mouse was suspended 50 cm above a floor. For six minutes in total, an immobility time of the laboratory animal was measured.

[4] = tested on: corticosterone, IL-6, TNF-α and lipopolysaccharide in blood; assay: Blood indicators (corticosterone, IL-6, TNF-α, lipopolysaccharide); assay type: in vivo, mouse; details: for BC (ng/mL), corticosterone in blood: immobilization stress
Experimental: as §2
Blood was diluted 10 times with PBS, then centrifuged, and then a resulting supernatant was treated at […] for 10 minutes. A resulting supernatant was filtered with a 0.45 μm filter, then filtered again with a 0.22 μm filter, and then used as a specimen. For the said specimen, lipopolysaccharide was measured by means of Limulus amoebocyte lysate (LAL) assay kit (Cape Cod Inc., East Falmouth, MA, U.S.A.).
(§3) Inflammatory reaction biomarkers such as p-p65, p65, iNOS, COX-2 and β-actin were measured by means of a western blotting method. Particularly, 50 μg of supernatant, which had been obtained by the same method as shown in the said experiment for measuring the activity of myeloperoxidase (MPO), was taken and then immune blotting was performed thereon. Also, an expression level of cytokines was measured by means of ELISA kit, and LPS was measured by means of LAL assay kit.
(§4) In two hours after performing a last behavioral experiment on a depressed mouse, the mouse was anesthetized, and corticosterone in blood was measured by means of ELISA, and a brain derivated neurotrophic factor (BDNF) and NF-κB of a brain and NF-κB of a colon were measured by means of immunoblotting by the same method as shown in Experimental Example 5 above, wherein the results thereof are as shown in a following table 14.

[5] = tested on: NF-κB (p-p65/p65) and BDNF in a hippocampus; assay: NF-κB activity and BDNF expression in hippocampus (immunoblotting); assay type: in vivo; details: depressed mouse
Experimental: as §3, §4

colon [6] = assay: Colitis indicators (colon length, myeloperoxidase, inflammatory indicators of the colon); assay type: in vivo, mouse; details: immobilization stress
Experimental: 200 μl of 10 mM potassium phosphate buffer, pH 7.0 containing 0.5% hexadecyl trimethyl ammonium bromide was put into 100 mg of a colon tissue, and then subjected to homogenization. A resulting mixture was centrifuged for 10 minutes on condition of 4° C. and 10,000 g, so as to obtain a supernatant. 50 μl of the supernatant was put into 0.95 ml of a reaction solution (containing 1.6 mM tetramethyl benzidine and 0.1 mM H2O2), then subjected to reaction at 37° C., and then an observance was […] measured at 650 nm. An activity of the said myeloperoxidase (MPO) was calculated with a resulting reactant H2O2 1 μmol/ml=1 unit.
as §3
In two hours after performing a last behavioral experiment on an anxious mouse in Experimental Example 1, the mouse was anesthetized, and a colon length and activations of MPO, COX-2, TNF-α and NF-Kb were measured by the same method as shown in Experimental Example 5, wherein the results thereof are as shown in a following table 15.

mouse [7] = assay: Object recognition test; assay type: in vivo; details: mouse given LPS from E. coli 0.5 mg/kg/day i.p. for five days
Experimental: (§5) On a following day after intraperitoneally administering LPS isolated from E. coli (0.5 mg/kg/day) to a mouse for five days, lactic acid bacteria were administered thereto, and an effect of lactic acid bacteria on improving a cognitive function was identified in such a way that an object recognition test and a Y maze test were performed and BDNF in a hippocampus was measured by immunoblotting, wherein the results thereof are as shown in a following table 18.
Particularly, as an object recognition test method, two objects (A, A′) of the same shape and size were fixed into a box (40×40×40 cm), of which outside is not visible from the inside, then a mouse was allowed to start moving at the center of the box, and then the number of touching the two objects was recorded for 10 minutes. In 24 hours later, one of the two objects was replaced with a new one (A, B), and then the number of touching an old one and a new one was recorded and quantified.

mouse [8] = assay: Y maze test; assay type: in vivo; details: mouse given LPS from E. coli 0.5 mg/kg/day i.p. for five days; spontaneous alteration
Experimental: as §5
Also, as a Y maze test method, a test apparatus consisted of the three identical arms (8 cm in length, […], 14 cm in height), each positioning at a certain angle of 120°. The mouse was placed at the end of one arm and allowed to freely move in a Y maze for eight minutes, after which the number and order of entering respective arms were measured, so as to evaluate a spontaneous alteration (%). The alteration was defined as an alphabetical character order, in which the mouse sequentially entered into three arms, i.e. ABC, BCA, CAB, etc. % alteration=[Total number of alterations]/[Total number of arm entries−2]×100

BDNF in a hippocampus = BDNF in a hippocampus by immunoblotting (LPS-treated mouse); assay type: in vivo; details: mouse given LPS from E. coli 0.5 mg/kg/day i.p. for five days
Experimental: as §5

colon [9] = assay: Colitis indicators (colon length, myeloperoxidase, inflammatory indicators of the colon); assay type: in vivo, mouse; details: antibiotic stress
[10] = antibiotic stress (ampicillin 100 mg/kg, two days)

In the case of O=C1CC2(CCCC2)CC(=O)N1CCCCN1CCN(c2ncccn2)CC1 [Buspirone], the “OE (%)” value (C57BL/6 mouse; Anxious mouse) is reported as 33.8%, the “OT (%)” value (C57BL/6 mouse; Anxious mouse, once daily for three days) is reported as 16.7% and the “OE (%)” value (C57BL/6 mouse; Depressive mouse) is reported as 29.8%. For the same molecule, the “OT (%)” value (C57BL/6 mouse; Depressive mouse) was 15.7%, the “Open arm entries (%)” value (C57BL/6 mouse; [10]) was 31.3% and the “Time spent in open arms (%)” value (C57BL/6 mouse; [10]) was 14.1%. The Number of transitions (mouse [1]) was 19.6, the “Time in bright area (%)” value (mouse [1]) was 40.1% and the “Immobility time (%)” value (mouse [2]) was 32.1%. The “Immobility time (%)” value (mouse [3]) was 25.2%, the “BC (ng/mL), corticosterone in blood” value ([4]; Anxious mouse) was 1.2 ng/mL and the “BC (ng/mL), corticosterone in blood” value ([4]; Depressive mouse) was 3.8 ng/mL. The “Blood corticosterone” value [4, 10] was 1.6 ng/mL, the “Blood corticosterone” value ([4]; depressed mouse, ELISA, Table 14) was 3.8 ng/mL and the BDNF expression level [5] was “− (− , <10%)”. The “NF-kB activation inhibitory capacity” value [5] was “− (− , <10%)”, the “Colon length (cm)” value (colon [6]; Anxious mouse) was 5.2 cm and the “Inflammatory indicator inhibition rate COX-2” value (colon [6]; anxious mouse, colon) was “+ (+, 10~30%)”. For the same molecule, the “Inflammatory indicator inhibition rate NF-κB” value (colon [6]; anxious mouse, colon) was “+ (+, 10~30%)”, the “Inflammatory indicator inhibition rate TNF-α” value (colon [6]; anxious mouse, colon) was “+ (+, 10~30%)” and the MPO inhibitory capacity (colon [6]; anxious mouse, colon) was “+ (+, 10~30%)”. For the same molecule, the “Object recognition test (%)” value (mouse [7]) was 42.9%, the “Y maze test (%)” value (mouse [8]) was 62.4% and the “Hippocampus BDNF expression capacity” value (BDNF in a hippocampus) was “+ (+, 10~30%)”. For the same molecule, the “Colon length (cm)” value (colon [9]) was 5.5 cm, the “Inflammatory indicator inhibition rate COX-2” value (colon [9]; colon) was “+ (+, 10~30%)” and the “Inflammatory indicator inhibition rate NF-κB” value (colon [9]; colon) was “+ (+, 10~30%)”. The “Inflammatory indicator inhibition rate TNF-α” value (colon [9]; colon) was “+ (+, 10~30%)” and the MPO inhibitory capacity (colon [9]; colon) was “+ (+, 10~30%)”.
